Assay [1] has as its target T1, mppGalNAcT-3 (Mus musculus, UniProt P70419).
T1 construct: plasmids encoding truncated secreted ppGalNAcTs-1 to −5, -7, -10 and -11; made in house; host or cells: COS-7
T1 sequence (P70419 38-633 limits assumed): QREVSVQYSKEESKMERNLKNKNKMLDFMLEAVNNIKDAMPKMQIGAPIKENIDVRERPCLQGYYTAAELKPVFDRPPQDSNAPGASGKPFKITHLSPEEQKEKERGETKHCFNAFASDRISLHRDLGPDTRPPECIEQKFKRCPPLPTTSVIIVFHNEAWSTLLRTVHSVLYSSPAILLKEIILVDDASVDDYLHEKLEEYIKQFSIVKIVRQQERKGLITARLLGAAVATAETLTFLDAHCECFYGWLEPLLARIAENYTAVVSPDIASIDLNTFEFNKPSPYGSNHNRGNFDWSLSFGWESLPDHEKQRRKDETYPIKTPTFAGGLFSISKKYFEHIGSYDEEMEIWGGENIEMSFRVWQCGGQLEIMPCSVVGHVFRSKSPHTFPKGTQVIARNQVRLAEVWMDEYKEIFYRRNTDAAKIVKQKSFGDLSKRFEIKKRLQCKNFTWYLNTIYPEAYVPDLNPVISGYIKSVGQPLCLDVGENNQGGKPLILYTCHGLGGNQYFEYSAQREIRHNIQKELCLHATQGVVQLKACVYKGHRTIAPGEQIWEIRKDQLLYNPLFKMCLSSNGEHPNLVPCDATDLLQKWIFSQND
As to the kind of experiment: ELLA for ppGalNAcTs, mppGalNAcT-3. The assay is classed as biochemical, murine. The note with it: 20 μM UDP-GalNAc, 50 μM EA2 peptide 4. How it is done:
COS-7 cells were transiently transfected with plasmids encoding truncated secreted ppGalNAcTs-1 to −5, -7, -10 and -11 as previously described. Hagen et al. (1997) J. Biol. Chem. 272:13843-13848. The crude conditioned medium was used as the enzyme source.
Standard reaction conditions for ppGalNAcT assays were as follows. The reaction mixture contained the following components in a final volume of 25 μL: 10 mM MnCl2, 40 mM sodium cacodylate, 40 mM β-mercaptoethanol, 0.1% Triton X-100, pH 6.5, 5 μL of conditioned media, and various concentrations of EA2 peptide 4, UDP-GalNAc and inhibitor. All uridine-based compounds were dissolved in dimethyl sulfoxide (DMSO). […] Reaction rates were linear over the period monitored (20-30 min).
96-Well NeutrAvidin-coated plates were prewashed 3 times with 200 μL of wash buffer (25 mM Tris, 150 mM NaCl, 0.1% bovine serum albumin (BSA) (w/v), and 0.05% Tween (v/v), pH 7.2). […] After 3 washes with 200 μL of PBS, bound HPA-HRP was quantified by the addition of 100 μL of TMB peroxide solution. […] HRP activity was terminated by the addition of 50 μL of 2 N H2SO4 and the resulting solution was analyzed at 450 nm using a UV/Vis microtiter plate reader. The amount of product generated by the ppGalNAcT was extrapolated from absorbance values using an equation fit to the standard curve derived from Origin 6.1 software.

In assay [2] the target is T2, rppGalNAcT-7 (Rattus norvegicus, UniProt Q9R0C5).
T2 construct: plasmids encoding truncated secreted ppGalNAcTs-1 to −5, -7, -10 and -11; made in house; host or cells: COS-7
T2 sequence (Q9R0C5 30-657 limits assumed): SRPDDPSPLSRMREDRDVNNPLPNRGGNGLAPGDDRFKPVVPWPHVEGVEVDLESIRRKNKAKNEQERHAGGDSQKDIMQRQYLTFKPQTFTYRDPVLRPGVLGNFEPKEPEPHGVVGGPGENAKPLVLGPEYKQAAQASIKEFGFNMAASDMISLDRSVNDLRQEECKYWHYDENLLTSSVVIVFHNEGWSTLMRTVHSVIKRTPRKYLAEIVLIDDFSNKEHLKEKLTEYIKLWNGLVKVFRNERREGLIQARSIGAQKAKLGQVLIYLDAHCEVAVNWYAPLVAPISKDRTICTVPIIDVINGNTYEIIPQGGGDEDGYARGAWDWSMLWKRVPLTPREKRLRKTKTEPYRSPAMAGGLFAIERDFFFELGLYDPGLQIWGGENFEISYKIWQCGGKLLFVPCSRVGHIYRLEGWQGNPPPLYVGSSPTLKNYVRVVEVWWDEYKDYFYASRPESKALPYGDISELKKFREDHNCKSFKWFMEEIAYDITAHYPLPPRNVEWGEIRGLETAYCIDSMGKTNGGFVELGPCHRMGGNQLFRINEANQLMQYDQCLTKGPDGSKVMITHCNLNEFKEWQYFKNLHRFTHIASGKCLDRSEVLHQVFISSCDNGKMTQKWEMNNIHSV
Nature of the assay: Radiolabel capture assay, rppGalNAcT-7. The assay is classed as biochemical. The settings on record: MUC5AC glycopeptide. As to the method:
Radiolabel capture assays using ^14C-labeled UDP-GalNAc were performed as previously described with various concentrations of 1-68A or 2-68A in 2% DMSO. Ten Hagen et al. (2001) J. Biol. Chem. 276:17395-17404.
Table 1. IC50 values for 1-68A and 2-68A with ppGalNAcTs-1 to −5, -7, -10, -11, β1-4GalT and α1-3GalT. The requirement of glycopeptides as substrates for ppGalNAcT-7 and -10 precluded the use of the ELLA, as both the substrate and product bind HPA-HRP. Thus, the radiolabel capture assay was employed to measure the IC50 values of 1-68A and 2-68A with ppGalNAcT-7 and -10 using MUC5AC (GTTPSPVPTTSTTSAP; SEQ ID NO:15) glycopeptide, previously shown to be substrate for both enzymes. Ten Hagen et al. (1999) J. Biol. Chem. 274:27867-27874; and Ten Hagen et al. (2001) J. Biol. Chem. 276:17395-17404. IC50 values of 1-68A and 2-68A with ppGalNAcT-5 were performed with α-FLAG purified enzyme and radiolabel capture assay, due to low activity and stability of the crude enzyme. m=murine, r=rattus.

SMILES strings stand for the structures.

For 2 compounds, IC50 results are on record in patent US20060063736A1, “Compositions and methods for inhibiting mucin-type O-linked glycosylation” (priority 2004, published 2006).

The term IC50 denotes the point on the concentration scale where inhibition reaches its midpoint. A high value points to weaker potency in that assay. Turning to `O=c1ccn([C@@H]2O[C@H](CON=Cc3ccc(O)c(O)c3O)[C@@H](O)[C@H]2O)c(=O)[nH]1` [1-68A], the half-inhibitory concentration (IC50) was found to be 40 ± 2 µM in assay [1] and 22 ± 2 µM in assay [2].

For the compound `O=C(CON=Cc1ccc(O)c(O)c1O)NC[C@H]1O[C@@H](n2ccc(=O)[nH]c2=O)[C@H](O)[C@@H]1O` [2-68A], the IC50 in assay [1] amounted to 38 ± 4 µM; in assay [2] it was 27 ± 2 µM.
